Literature values as cited in US10328004B2, “Sunscreen cosmetic” (SHISEIDO COMPANY, LTD., priority 2015, dated 2019).

Conditions: UVB wavelength range

## CCCCC(CC)COC(=O)c1ccc(Nc2nc(Nc3ccc(C(=O)OCC(CC)CCCC)cc3)nc(Nc3ccc(C(=O)OCC(CC)CCCC)cc3)n2)cc1 (stereo not shown) [Ethylhexyl triazone]
  maximum absorption wavelength: 312 nm
